# Columns and labels:
# Experiment in all cases: relative viability (nuclei count vs DMSO), 5 days (fraction); higher = more cells survive
# [1] = compound: O=S(=O)(c1ccccc1)N(CC(F)(F)F)c1ccc(C(O)(C(F)(F)F)C(F)(F)F)cc1 + O=C(CCCCCCC(=O)Nc1ccccc1)NO [Vorinostat] (partner 1 µM)
# How it was run: (§1)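 The day after seeding in 1536-well plates, lung cancer cell lines were treated by pin tool with a single drug, or with a fixed anchor-drug dose together with five library-drug doses (not always all listed) in √10 steps. After 5 days, a combined fix-and-stain solution (final 0.05% Triton X-100, 1% formaldehyde, 1 ug/ml Hoechst) was added. Nuclei counted on 4× images gave relative viability as treated counts over vehicle counts, reported as the median of duplicate plates.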
# RO-3306 + Dasatinib = compound: C1=CC2=C(C=CC(=C2)C=C3C(=O)NC(=NCC4=CC=CS4)S3)N=C1 [RO-3306] + Cc1nc(Nc2ncc(C(=O)Nc3c(C)cccc3Cl)s2)cc(N2CCN(CCO)CC2)n1 [Dasatinib] (partner 0.075 µM)
# How it was run: as §1
# [2] = compound: O=S(=O)(c1ccccc1)N(CC(F)(F)F)c1ccc(C(O)(C(F)(F)F)C(F)(F)F)cc1 + Cc1nc(NC(=O)N2CCC[C@H]2C(N)=O)sc1-c1ccnc(C(C)(C)C(F)(F)F)c1 [Alpelisib] (partner 2 µM)
# How it was run: as §1
# [3] = compound: O=S(=O)(c1ccccc1)N(CC(F)(F)F)c1ccc(C(O)(C(F)(F)F)C(F)(F)F)cc1 + CC1(C)CCC(c2ccc(Cl)cc2)=C(CN2CCN(c3ccc(C(=O)NS(=O)(=O)c4ccc(N[C@H](CCN5CCOCC5)CSc5ccccc5)c(S(=O)(=O)C(F)(F)F)c4)cc3)CC2)C1 [Navitoclax] (partner 0.5 µM)
# How it was run: as §1
# [4] = compound: O=S(=O)(c1ccccc1)N(CC(F)(F)F)c1ccc(C(O)(C(F)(F)F)C(F)(F)F)cc1
# How it was run: (§2)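 Lung cancer cell lines in 1536-well plates were exposed by pinning to five library-drug doses (not always all listed) √10 apart, following an overnight hold at 37 °C. MetaXpress counted Hoechst-stained nuclei from 4× images taken after 5 days without medium change. Viability is the median ratio of treated-well to vehicle-well nuclei across plates. Plates required control CV below 25% and at least one doubling.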
# Foretinib = compound: COc1cc2c(Oc3ccc(NC(=O)C4(C(=O)Nc5ccc(F)cc5)CC4)cc3F)ccnc2cc1OCCCN1CCOCC1 [Foretinib] (anchor plate); conditions: 0.25 µM
# How it was run: as §2
Cell Line,relative viability ([1]; first compound 0.8 µM),relative viability ([1]; first compound 2.53 µM),relative viability ([1]; first compound 8 µM),relative viability (RO-3306 + Dasatinib; first compound 0.01 µM),relative viability (RO-3306 + Dasatinib; first compound 0.03162 µM),relative viability (RO-3306 + Dasatinib; first compound 0.1 µM),relative viability (RO-3306 + Dasatinib; first compound 0.3162 µM),relative viability (RO-3306 + Dasatinib; first compound 1 µM),relative viability ([2]; first compound 0.8 µM),relative viability ([2]; first compound 2.53 µM),relative viability ([2]; first compound 8 µM),relative viability ([3]; first compound 0.8 µM),relative viability ([3]; first compound 2.53 µM),relative viability ([3]; first compound 8 µM),relative viability ([4]; 0.8 µM),relative viability ([4]; 2.53 µM),relative viability ([4]; 8 µM),relative viability (Foretinib)
NCI-H441,0.464,0.85,0.781,0.499,0.392,0.657,0.485,0.709,0.815,0.481,0.64,0.411,0.604,0.613,1.12,0.896,0.941,0.994
HCC-366,0.506,0.325,0.279,0.794,0.565,0.677,0.668,0.652,0.469,0.436,0.428,1.19,1.03,1.03,1.12,0.979,0.983,0.942
NCI-H2085,0.785,0.748,0.711,0.212,0.221,0.225,0.265,0.237,0.982,0.885,0.969,1.14,1,1.03,0.967,0.908,0.929,1.01
SW 1573,0.634,0.722,0.725,0.455,,0.466,0.497,0.429,0.889,0.697,0.757,1.26,0.874,0.641,1.17,1.01,0.884,0.879
NCI-H1299,,,,,,,,,1.09,1.08,1.03,1.06,1,0.983,1.01,1.02,0.952,1.06
H3255,0.716,0.752,0.667,0.358,0.381,0.353,0.327,0.329,0.783,0.632,0.569,0.537,0.64,0.503,0.913,0.808,0.84,0.881
NCI-H2023,0.567,0.422,0.512,0.742,0.47,0.496,0.598,0.518,0.574,0.606,0.506,1.07,0.888,0.845,1.11,0.885,0.766,0.893
HOP-62,0.716,0.508,0.522,0.709,0.516,0.633,0.757,0.504,0.551,0.954,0.706,1.19,0.999,1.09,1.02,0.923,0.837,1.12
LC-2-ad,0.734,0.657,0.602,0.57,0.311,0.582,0.533,0.507,0.576,0.843,0.841,0.531,0.544,0.518,0.992,0.936,0.892,0.973
NCI-H2347,0.695,0.52,0.548,0.296,0.285,0.285,0.284,0.283,1.25,1.2,1.04,0.955,0.921,0.582,1.08,1.01,1.04,0.902
NCI-H1651,0.626,0.547,0.525,0.383,0.329,0.382,0.418,0.354,0.94,0.972,0.89,1.15,0.939,1.02,1.05,0.965,0.944,0.763
COR-L23,0.522,0.543,0.423,0.477,0.392,0.48,0.642,0.374,0.846,0.8,0.867,1.14,1.03,0.913,1.13,0.921,0.858,0.949
ABC-1,,0.882,0.912,0.644,0.614,0.483,0.458,0.531,0.936,0.916,1.1,,,,0.758,0.843,1.03,1.07
NCI-H1755,0.907,0.679,0.592,0.46,0.417,0.441,0.366,0.411,0.981,0.91,0.83,1.01,0.909,0.924,1.02,0.982,0.928,0.915
NCI-H2170,0.863,0.695,0.761,0.492,0.585,0.57,0.621,0.456,0.961,0.804,0.798,0.715,0.681,0.547,1.08,0.964,0.913,1.01
NCI-H23,0.75,0.622,0.725,0.679,0.595,0.932,0.75,0.657,0.905,0.818,0.618,1.11,0.804,0.817,1.09,1.07,1.15,0.969
NCI-H1395,0.532,0.594,0.759,0.4,0.494,0.372,0.409,0.587,0.936,1.02,1.29,1.01,1.06,1.31,0.867,0.894,0.914,1
LOU-NH91,0.985,0.913,1.04,0.617,0.496,0.513,0.57,0.5,0.654,0.721,0.74,0.73,0.666,0.717,0.984,0.968,1.05,0.94
NCI-H647,0.304,0.404,0.655,0.155,0.117,0.18,0.226,0.129,1.25,1.01,1.35,1.3,1.26,1.01,1.14,0.849,0.877,1.17
NCI-H522,0.833,0.973,0.959,0.895,0.854,0.82,0.823,0.846,,,,,,,1.06,0.954,1.15,

Cell Line,relative viability ([1]; first compound 0.8 µM),relative viability ([1]; first compound 2.53 µM),relative viability ([1]; first compound 8 µM),relative viability (RO-3306 + Dasatinib; first compound 0.01 µM),relative viability (RO-3306 + Dasatinib; first compound 0.03162 µM),relative viability (RO-3306 + Dasatinib; first compound 0.1 µM),relative viability (RO-3306 + Dasatinib; first compound 0.3162 µM),relative viability (RO-3306 + Dasatinib; first compound 1 µM),relative viability ([2]; first compound 0.8 µM),relative viability ([2]; first compound 2.53 µM),relative viability ([2]; first compound 8 µM),relative viability ([3]; first compound 0.8 µM),relative viability ([3]; first compound 2.53 µM),relative viability ([3]; first compound 8 µM),relative viability ([4]; 0.8 µM),relative viability ([4]; 2.53 µM),relative viability ([4]; 8 µM),relative viability (Foretinib)
HCC-78,0.489,0.414,0.425,0.36,0.345,0.444,0.406,0.384,0.349,0.298,0.289,0.792,0.67,0.622,0.892,0.786,0.851,0.587
ChaGo-K-1,0.885,0.732,0.655,0.63,0.624,0.569,0.622,0.349,,,,0.978,1.02,1.59,1.14,0.998,1.06,0.921
IA-LM,0.917,0.757,0.553,,,,,,0.715,0.5,0.655,0.765,0.696,0.899,0.924,0.829,0.756,1.13
EBC-1,,,,,,,,,0.572,0.474,0.547,0.447,0.402,0.356,0.934,0.769,0.721,0.108
NCI-H1623,,,,0.474,0.504,0.525,0.555,0.52,,,,,,,0.928,0.836,0.856,0.899
SW 900,0.498,0.498,0.699,0.505,0.538,0.658,0.859,0.542,,,,,,,0.934,0.729,0.994,0.974
NCI-H1792,,,,1.03,,0.752,0.814,0.55,0.629,0.445,0.34,0.798,0.559,0.474,0.79,0.724,0.858,
Calu-6,,,,,,,,,0.82,0.77,0.885,0.796,0.823,0.647,0.982,0.876,0.858,0.861
A549,,,,,,,,,0.643,0.779,0.677,1.34,1.12,0.97,1.07,0.914,0.886,0.951
NCI-H1563,,,,0.413,0.526,0.415,0.48,0.451,0.923,0.833,0.788,,,,0.95,1.02,0.947,0.93
LCLC-103H,0.859,0.746,0.78,0.472,0.478,0.44,0.401,0.385,1.11,0.999,1.03,,,,1.09,0.966,1.07,0.805
NCI-H1703,,,,,,,,,0.343,0.316,0.382,0.926,0.634,0.7,0.846,0.776,0.696,0.347
NCI-H650,0.368,0.36,0.359,0.429,0.421,0.393,0.479,0.421,1.13,1.03,1,,,,0.946,0.814,0.989,1.02
NCI-H1650,0.511,0.496,0.58,0.326,0.284,0.311,0.33,0.291,,,,1.39,1.07,1.06,0.929,0.897,0.936,1.22
NCI-H661,0.828,0.783,0.821,0.834,0.769,0.828,0.814,0.799,0.752,0.681,1.02,,,,1.04,0.982,0.971,0.971
NCI-H2342,0.8,0.841,0.741,0.37,0.306,0.319,0.289,0.303,,,,,,,1.36,0.968,0.938,1.05
HCC-44,0.981,0.972,0.953,,,,,,0.913,0.946,0.927,1.09,1.01,0.933,0.98,0.988,0.97,
NCI-H358,,0.581,0.541,0.145,0.155,0.169,0.133,0.191,0.647,0.729,0.695,,,,0.815,0.796,0.826,0.694
NCI-H1648,0.41,0.387,0.312,,,,,,,,,,,,0.793,0.58,0.518,

# Source: the supplement of paper PMC10307832
